Results as given in patent publication US20250289785A1, “INDOLE DERIVATIVE, METHOD FOR PREPARING SAME, AND USE THEREOF” (MITOIMMUNE THERAPEUTICS INC., priority 2021, published 2025).

Tested on: H9C2 cells
Experiment: Cell protection effect against t-BHP in heart cells (LDH release)
Type: cell-based
Conditions: H9C2, t-BHP 40 μM, 2 hours
Experimental: In order to identify the protective effect with regard to heart cells, H9C2 cells were divided into 96-well plates by 1.5×10^4, and cultured for 24 hours. The respective wells were treated with compounds of the examples 3× serial diluted to final concentrations of […], then cultured for 15 to 20 minutes. After treating with t-BHP with a final concentration of 40 μM, culturing was performed for 2 hours. In order to identify the protective effect of each compound, a Cytotoxicity LDH assay kit [Dojindo; CK12] was used to measure the degree of extracellular secretion of LDH. To describe briefly, at the time point 2-hour treatment of the cells with t-BHIP was completed, 100 μL each of the supernatant in which the cells were placed was collected and moved to a new 96-well plate. 100 μL/well of the assay buffer included in the kit (same amount as the sample) was added, followed by wrapping with foil and reacting for 30 minutes at room temperature. Observing the change in color of the sample, 50 μL/well of stop solution was added, then an iD3 spectrometer was used to measure absorbance at 490 nm and calculate the EC50 values. The EC50 of the compounds of the examples is preferably no more than 1.0 μM, and more preferably no more than 0.3 μM.

Row | SMILES | EC50 [µM]
1 | CCOCc1cc(NC2CCOCC2)c2[nH]c(-c3ccccc3)c(C(O)C(F)(F)F)c2c1 (stereo not drawn) [Example 37, 1-(5-(ethoxymethyl)-2-phenyl-7-((tetrahydro-2H-pyran-4-yl)amino)-1H-indol-3-yl)-2,2,2-trifluoro-1-ol] | 0.3 to 1
2 | CCOCc1cc(NC2CCCC2)c2[nH]c(-c3ccccc3)c(CCC(=O)OC)c2c1 [Example 38, Methyl 3-(7-(cyclopentylamino)-5-(ethoxymethyl)-2-phenyl-1H-indol-3-yl)propanoate] | ≤ 0.3
3 | CCOCc1cc(NC2CCOCC2)c2[nH]c(-c3ccccc3)c(CCC(=O)OC)c2c1 [Example 39, Methyl 3-(5-(ethoxymethyl)-2-phenyl-7-((tetrahydro-2H-pyran-4-yl)amino)-1H-indol-3-yl)propanoate] | ≤ 0.3
4 | CCOCc1cc(NC2CCCC2)c2[nH]c(-c3ccccc3)c(CCC(=O)O)c2c1 [Example 40, 3-(7-(cyclopentylamino)-5-(ethoxymethyl)-2-phenyl-1H-indol-3-yl)propanoic acid] | > 1
5 | COCCc1cc(NC2CCCC2)c2[nH]c(-c3ccccc3)cc2c1 [Example 42, N-cyclopentyl-5-(2-methoxyethyl)-2-phenyl-1H-indol-7-amine] | ≤ 0.3
6 | CCOCc1cc(NC2CCCC2)c2[nH]c(-c3ccccc3)c(-c3nccn3C(=O)OCC)c2c1 [Example 43, Ethyl 2-(7-(cyclopentylamino)-5-(ethoxymethyl)-2-phenyl-1H-indol-3-yl)-1H-imidazole-1-carboxylate] | 0.3 to 1
7 | CCOCc1cc(NC2CCOCC2)c2[nH]c(-c3ccccc3)c(-c3nccn3C(=O)OCC)c2c1 [Example 44, ethyl 2-(5-(ethoxymethyl)-2-phenyl-7-((tetrahydro-2H-pyran-4-yl)amino)-1H-indol-3-yl)-1H-imidazole-1-carboxylate] | > 1
8 | CCOCc1cc(NC2CCCC2)c2[nH]c(-c3ccccc3)c(-c3ncc[nH]3)c2c1 [Example 45, N-cyclopentyl-5-(ethoxymethyl)-3-(1H-imidazol-2-yl)-2-phenyl-1H-indol-7-amine] | 0.3 to 1
9 | CCCOCc1cc(NC2CCOCC2)c2[nH]c(-c3ccccc3)cc2c1 [Example 47, 2-phenyl-5-(propoxymethyl)-N-(tetrahydro-2H-pyran-4-yl)-1H-indol-7-amine] | ≤ 0.3
10 | c1ccc(-c2cc3cc(COCC4CC4)cc(NC4CCOCC4)c3[nH]2)cc1 [Example 48, 5-((cyclopropylmethoxy)methyl)-2-phenyl-N-(tetrahydro-2H-pyran-4-yl)-1H-indol-7-amine] | ≤ 0.3
11 | CCOCc1cc(NCC2CCOCC2)c2[nH]c(-c3ccccc3)cc2c1 [Example 49, 5-(ethoxymethyl)-2-phenyl-N-((tetrahydro-2H-pyran-4-yl)methyl)-1H-indol-7-amine] | ≤ 0.3
12 | COCCCc1cc(NC2CCOCC2)c2[nH]c(-c3ccccc3)cc2c1 [Example 50, 5-(3-methoxypropyl)-2-phenyl-N-(tetrahydro-2H-pyran-4-yl)-1H-indol-7-amine] | ≤ 0.3
13 | CCOCCCc1cc(NC2CCOCC2)c2[nH]c(-c3ccccc3)cc2c1 [Example 51, 5-(3-ethoxypropyl)-2-phenyl-N-(tetrahydro-2H-pyran-4-yl)-1H-indol-7-amine] | ≤ 0.3

Tested on: not listed separately
Experiment: Plasma and brain concentration after oral administration to ICR mice (HPLC-MS/MS)
Type: in vivo
Conditions: ICR mouse, 10 mg/kg, 2 hours after administration
Experimental: […] parameters can be represented as maximum concentration in plasma (Cmax), time taken until maximum concentration in plasma (Tmax), area under the plasma concentration-time curve (AUClast and AUCinf), and half-life (t1/2), and the like.
The compound of example 2 was orally administered to ICR mice at a dose of 10 mg/kg, and drug concentration in mouse plasma was measured using HPLC-MS/MS spectroscopy at 0.5, 1, 2, 4, 8 and 24 hours. The mouse brains were removed at 2 or 24 hours, and drug concentration in the brain was measured using HPLC-MS/MS spectroscopy. The area under the plasma concentration v. time curve (AUCinf) was measured to be […], and at 2 hours after administration drug concentration in plasma was 546 ng/mL and brain drug concentration was measured at 1043 ng/mL. […] Further, at 24 hours after administration, for Embodiment 2, drug concentration in plasma was measured to be 4.7 ng/mL and drug concentration in the brain was measured at 5.7 ng/mL. With the brain-plasma drug concentration ratio at 1.23, drug exposure in the brain was still high.
The Comparative Example compound was orally administered to ICR mice at a dose of 10 mg/kg, and drug concentration in mouse plasma was measured using HPLC-MS/MS spectroscopy at 0.5, 1, 2, 4, 8 and 24 hours. The mouse brains were removed at 2 or 24 hours, and drug concentration in the brain was measured using HPLC-MS/MS spectroscopy.

Row | SMILES | brain drug concentration [ng/mL] | drug concentration in plasma [ng/mL]
14 | OCc1cc(NC2CCCC2)c2[nH]c(-c3ccccc3)cc2c1 [Comparative Example, reference compound] | 95.1 | 1122.4
